Results from patent US20250051324A1, “PARP INHIBITOR, PHARMACEUTICAL COMPOSITION COMPRISING SAME, AND USE THEREOF” (KEYTHERA (SUZHOU) BIO-PHARMACEUTICALS CO., LIMITED, priority 2021, published 2025).

Tests used:
PARP2 = PARP2 (Homo sapiens (Human), UniProt Q9UGN5); experiment: PARP2 trapping assay; assay type: biochemical; conditions: read-out: Inhibitory Effect on PARP2 Trapping IC50
Procedure: [table] […] 1. A 4× enzyme reaction mixture, comprising PARP1, PARP2, and GST-Tb antibody, was prepared with the buffer and 4 μL of the enzyme reaction mixture was added to a 384-well plate. 2. A 4×PARP1 and PARP2 probe reaction mixture was prepared with the buffer and 4 μL of the probe reaction mixture was added to the 384-well plate. 3. A series of gradient-diluted compounds were prepared and 4 μL of the diluted compounds were added to the 384-well plate, and incubated at room temperature for 45 minutes. 4. After incubation, 4 μL of 4×NAD reaction mixture was added to the 384-well plate and incubated at room temperature for 10 minutes. 5. After incubation, the plate was read using a plate reader. 6. Data Analysis: The percentage inhibition rate was calculated as follows: Inhibition Rate (%)=(Reading of Compound Group−Reading of Blank Group)/(Reading of Vehicle Control Group−Reading of Blank Group).

[1] = tested on: UWB1.289 ovarian cancer cells; experiment: Cell proliferation assay, UWB1.289; assay type: cell-based; conditions: UWB1289, 168 h, read-out: UWB1.289 Cell IC50
Procedure: Experimental Materials: MDA-MB-436 or UWB1.289 cell lines were purchased from Cobioer Biosciences Co. Ltd. (Nanjing, China). The STR identification results were a complete match, and mycoplasma testing was negative. MDA-MB-436 cells were cultured in DMEM complete medium containing 10% fetal bovine serum, 1% penicillin-streptomycin, 1% insulin, and 16 μg/mL glutathione; UWB1.289 cells were cultured in RMPI1640 complete medium containing 10% fetal bovine serum and 1% penicillin-streptomycin.
1. MDA-MB-436 or UWB1.289 cells were cultured in the aforementioned medium (culture conditions: 37° C., 5.0% CO2 in air) until they reached the logarithmic growth phase. The cells were then digested with trypsin containing 0.25% EDTA, centrifuged at 1000 rpm, and the supernatant was discarded. Cell culture medium was added, and the cell suspension was adjusted to 2×10^4/mL after counting. 135 μL of the cell suspension per well was taken and cultured in a 96-well cell culture plate for 16 hours (culture conditions: 37° C., 5.0% CO2 in air).
2. The test compounds, stored at a concentration of 10 mM, were diluted 2.5 times with DMSO and then serially diluted in a 1:3 gradient (9 gradients). The gradient-diluted samples were further diluted 40 times with serum-free medium, and 15 μL of each was added to the 96-well cell culture plate. The positive control group received serum-free medium containing the same concentration of DMSO, and the negative control group received medium without cells. The cells were then cultured for an additional 7 days.
3. After the culture period, the cell culture plate was placed at room temperature for 30 minutes. Then, 100 μL of CellCounting-Lite 2.0 reagent (Vazyme, #DD1101) was added to each well, mixed thoroughly, and incubated in the dark at room temperature for 10 minutes. The luminescence signal was read using a Synergy HTX multi-mode reader.
4. Data analysis was performed using GraphPad Prism 8.0 software. The inhibition rate (%) was calculated as 100*(average luminescence signal of the positive control group−luminescence signal of the compound)/(average luminescence signal of the positive control group−average luminescence signal of the negative control group). The IC50 value was obtained by plotting the logarithm of the compound concentration against the percentage inhibition rate.

[2] = Evaluation of pharmacokinetics in rats; assay type: in vivo; conditions: male, SD, rat, plasma, 1 mg/kg, oral gavage (PO, 1 mpk)
Text: Test Animals: 6-8 Week Old Male SD Rats
Food was restored two hours after dosing.

[3] = Evaluation of pharmacokinetics in mice; conditions: male, ICR (CD1), mouse, plasma, po, 10 mg/kg
Procedure: Test Objective: The pharmacokinetics of the example compounds of the present application were tested in mice. By measuring the drug concentration in mouse plasma, the pharmacokinetic behavior of the compounds of the present invention was studied to evaluate their pharmacokinetic characteristics.
Test Animals: 6-8 Week Old Male ICR (CD1) Mice
Oral Gavage Drug Preparation: An appropriate amount of the test compound was first weighed and dissolved in DMSO (Macklin cas: 67-68-5) to prepare a 20 mg/mL solution. Then, 75 μL of this solution was added to 150 μL of Solutol (Sigma cas: 70142-34-6), followed by 1.275 mL of 20% Captisol (Selleck cas: 182410-00-0), resulting in a final drug concentration of 1 mg/mL.
Intravenous Injection Drug Preparation: An appropriate amount of the test compound was first weighed and dissolved in DMSO (Macklin cas: 67-68-5) to prepare a 30 mg/mL solution. Then, 15 μL of this solution was added to 150 μL of Solutol (Sigma cas: 70142-34-6), followed by 1.335 mL of 20% Captisol (Selleck cas: 182410-00-0), resulting in a final drug concentration of 0.3 mg/mL.
Procedures: The mice were fasted overnight with free access to water before the experiment. Food was restored two hours after dosing. Blood samples were collected at different time points after intravenous injection or oral gavage of the test compound in mice, and the compound concentration in plasma was measured. Approximately 50 μL of blood was collected from each animal using a capillary sampling tube via the orbital venous plexus, with heparin sodium as an anticoagulant. Blood samples were placed on ice, centrifuged at 3500 r/min for 10 minutes to separate the plasma, and 20 μL of the collected plasma was added to 200 μL of acetonitrile (Merck cas: 75-05-8) containing 200 nM dexamethasone (Selleck cas: 50-02-2) as an internal standard. The mixture was centrifuged at 8000 r/min for 20 minutes. After centrifugation, 150 μL of the supernatant was transferred to a new centrifuge tube, and 150 μL of 0.1% formic acid (Fisher cas: 207868) was added. The mixture was mixed well, and 5 μL of the sample was subjected to quantitative analysis by liquid chromatography-mass spectrometry (Q-TOF LC/MS).
The test compound was serially diluted with DMSO to cover the compound concentrations expected in plasma samples to be tested, with a blank sample (containing only DMSO) included.
2 μL of each diluted sample at various concentrations was added to 18 μL of normal ICR mouse plasma, mixed, and then added to 200 μL of acetonitrile (Merck cas: 75-05-8) containing 200 nM dexamethasone (Selleck cas: 50-02-2) as an internal standard. The mixture was centrifuged for 20 minutes (8000 r/min). 150 μL of the supernatant was transferred to a new centrifuge tube, and 150 μL of 0.1% formic acid (Fisher cas: 207868) was added. The mixture was mixed well, and 5 μL of the sample was subjected to quantitative analysis by liquid chromatography-mass spectrometry (Q-TOF LC/MS).
The final standard curve was plotted using the concentration of the test compound after dilution on the abscissa and the ratio of the signal of the compound to the internal standard (dexamethasone) on the ordinate. The standard curve was generated using linear regression with GraphPad Prism 8 software (R2>0.9900).
Data Analysis: calculation of pharmacokinetic parameters: the concentration of the test compound in plasma at different time points after intravenous injection or oral gavage in ICR mice was determined based on the above standard curve, and pharmacokinetic parameters (T1/2, Cmax, AUC, etc.) were calculated using the Phoenix WinNonlin 8.1 non-compartmental analysis model.

PARP2, sequence (Q9UGN5 whole entry): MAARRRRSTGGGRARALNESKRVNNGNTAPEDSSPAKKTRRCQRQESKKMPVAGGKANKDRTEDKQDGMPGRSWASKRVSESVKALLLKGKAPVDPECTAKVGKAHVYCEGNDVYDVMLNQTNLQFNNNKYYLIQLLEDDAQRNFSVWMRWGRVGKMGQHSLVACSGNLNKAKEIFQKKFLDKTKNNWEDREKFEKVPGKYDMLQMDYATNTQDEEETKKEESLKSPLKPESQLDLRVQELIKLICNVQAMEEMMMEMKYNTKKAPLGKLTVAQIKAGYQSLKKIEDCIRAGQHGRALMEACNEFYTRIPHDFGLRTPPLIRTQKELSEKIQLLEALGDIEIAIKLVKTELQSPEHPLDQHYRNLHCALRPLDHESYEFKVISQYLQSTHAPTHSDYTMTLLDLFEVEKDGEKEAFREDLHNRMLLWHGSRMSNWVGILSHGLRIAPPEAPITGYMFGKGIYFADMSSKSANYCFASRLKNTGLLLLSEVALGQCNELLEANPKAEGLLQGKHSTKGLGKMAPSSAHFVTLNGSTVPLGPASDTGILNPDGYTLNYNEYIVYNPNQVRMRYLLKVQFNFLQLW

SMILES: CNC(=O)c1ccc(N2CCN(Cc3cnc4c(C)c(C(F)(F)F)c(=O)[nH]c4c3)CC2)cn1 [Compound 1, N-methyl-5-(4-((8-methyl-6-oxo-7-(trifluoromethyl)-5,6-dihydro-1,5-naphthyridin-3-yl)methyl)piperazin-1-yl)picolinamide]
- IC50 (PARP2): 164 nM
- IC50 [1]: 0.66 nM
- AUC(0-inf) [2]: 11.3 µg·h/mL
- Cmax [2]: 1740 ng/mL
- half-life [2]: 4.33 h
- AUC(0-inf) [3]: 972 µg·h/mL
- Cmax [3]: 39600 ng/mL
- half-life [3]: 17.9 h
